Source: patent US5837684A, “Peptides” (Nycomed Imaging AS, priority 1995, dated 1998)

Legend:
[1] = biological target: binary complex of TF/FVIIa (Homo sapiens, UniProt P00742); assay: lipidated TF assay (chromogenic assay measuring the FXa generated by TF/FVIIa); assay type: biochemical; details: for IC50: FVIIa 5 pM, FX 20 nM, TF 5 pM, CaCl2 5 mM, 15 min preincubation at ambient temperature, FXa substrate S2765, read-out: IC50: concentration of peptide inhibiting the rate of FX activation by 50%; for IC values (statement in words): lipidated TF assay, summary of Table 1
Chain of binary complex of TF/FVIIa (P00742 41-179 limits assumed): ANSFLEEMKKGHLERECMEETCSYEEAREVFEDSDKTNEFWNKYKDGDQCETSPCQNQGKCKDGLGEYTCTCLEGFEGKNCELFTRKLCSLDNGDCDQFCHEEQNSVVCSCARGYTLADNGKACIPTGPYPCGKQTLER
Chain of binary complex of TF/FVIIa (P00742 235-488 limits assumed): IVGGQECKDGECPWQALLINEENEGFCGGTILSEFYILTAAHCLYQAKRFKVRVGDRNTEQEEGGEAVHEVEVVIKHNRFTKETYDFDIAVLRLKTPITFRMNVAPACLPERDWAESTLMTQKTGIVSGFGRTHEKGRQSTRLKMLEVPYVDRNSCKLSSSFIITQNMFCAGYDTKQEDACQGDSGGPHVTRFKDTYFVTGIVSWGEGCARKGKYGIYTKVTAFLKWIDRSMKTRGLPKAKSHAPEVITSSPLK
Procedure: The inhibitory capacity of the peptides was measured by a so-called lipidated TF assay which is a chromogenic assay measuring the FXa generated by the binary complex of TF/FVIIa. FVIIa (5 pM final concentration) and FX (20 nM) were combined in the presence of different concentrations of peptide and incubated for 15 min at ambient temperature. TF (5 pM) and CaCl2 (5 mM) were added to initiate the reaction. Reactions were quenched with EDTA and the FXa activity was measured in an amidolytic assay, using the chromogenic FXa substrate S2765 (trade name). Data from these studies with this assay are shown in FIG. 1, and Table 1 hereinafter gives the corresponding IC values. Data are plotted as the percentage of the rate of FXa formation determined without peptide versus the concentration of the following peptides: hu#154-163 (SEQ. ID. NO. 1) (.circle-solid.), mu#158-167 (SEQ. ID. NO. 2) (x) and rb#152-161 (SEQ. ID. NO. 3) (Δ).

[2] = biological target: TF/FVIIa complex (FX activation) (Homo sapiens, UniProt P00742); assay: Dixon plot analysis of the inhibitory mechanism of FXa formation; assay type: biochemical; details: Dixon plots; three FX concentrations or three TF concentrations in excess of FVIIa
Chain of TF/FVIIa complex (FX activation) (P00742 41-179 limits assumed): as the sequence (P00742 41-179 limits assumed) above
Chain of TF/FVIIa complex (FX activation) (P00742 235-488 limits assumed): as the sequence (P00742 235-488 limits assumed) above
Procedure: Different concentrations of peptide were mixed with FVIIa and three different concentrations of FX and, after addition of TF, the rate of FXa formation was determined. In another experiment, different concentrations of peptide were mixed with FVIIa and three different concentrations of TF, in excess of FVIIa. After addition of FX, the rate of FXa formation was determined. Results were plotted according to Dixon, the inverse of the rate of FXa formation versus peptide concentration. Peptide mu#158-167 (SEQ. ID. No. 2), produced linear regression lines, which intercepted on the abscissa (different FX concentrations) or above the abscissa (different TF concentrations).

Row | IC50 [1] [µM] | IC values (statement in words) [1] | Substance | inhibitory mechanism of FXa formation [2]
1 | 14 | very low μm range | H--Thr--Leu--Tyr--Tyr--Trp--Arg--Ala--Ser--Ser--Thr--OH (H-TLYYWRASST-OH) [rb#152-161, 10-mer of rabbit TF residues 152-161] | 
2 | 21 | very low μm range | H-IITYRKGSST-OH [mu#158-167, H--Ile--Ile--Thr--Tyr--Arg--Lys--Gly--Ser--Ser--Thr--OH] | competes with TF or FVIIa/TF complex for interaction with FX
3 | 100 |  | H-TLYYWKSSSS-OH [hu#154-163, H--Thr--Leu--Tyr--Tyr--Trp--Lys--Ser--Ser--Ser--Ser--OH] | 
